The text below walks through data of ChEMBL document CHEMBL1152465, “Comparative evaluation of the inhibitory activities of a series of pyrimidinedione congeners that inhibit human immunodeficiency virus types 1 and 2” (Antimicrob Agents Chemother, 2008).

Activity calls are given as the source filed them. Unless noted, no cut-off for these calls is given here.

By IC50 is commonly meant the concentration at which inhibition is half-maximal. As a reminder, the EC99 is the point of the concentration-response curve where the effect stands at 99%. As usually defined, the EC50 is the concentration giving half of the maximal effect.

For data set [1], the system named is Human immunodeficiency virus 1. The experiment in a line: Antiviral activity against HIV1 infected in human HeLa cells expressing CD4-LTR assessed as inhibition of viral entry-related beta galactosidase expression pretreated 2 hrs before viral infection measured after 48 hrs of infection by MAGI assay. It is filed as functional, organism-based.
In data set [2] the test system is Human immunodeficiency virus 1. The experiment in a line: Antiviral activity against HIV1 infected in human HeLa cells expressing CD4-LTR assessed as inhibition of viral entry-related beta galactosidase expression at > 10 ug/ml followed by drug wash out and viral infection measured after 48 hrs by MAGI assay. The format is functional, organism-based.
For data set [3], the system named is Human immunodeficiency virus 1. The data set is described as follows: Antiviral activity against HIV1 infected in human HeLa cells expressing CD4-LTR assessed as inhibition of viral entry-related beta galactosidase expression treated for 2 hrs followed by drug wash out measured after 48 hrs by MAGI assay. The format is functional, organism-based.
The subject of data set [4] is Human immunodeficiency virus 1. The experiment in a line: Antiviral activity against HIV1 infected in human HeLa cells expressing CD4-LTR assessed as inhibition of viral entry-related beta galactosidase expression at 0.2 to 0.4 uM followed by drug wash out and viral infection measured after 48 hrs by MAGI assay. The format is functional, organism-based.
Data set [5] addresses Human immunodeficiency virus type 1 reverse transcriptase (Human immunodeficiency virus 1, UniProt Q72547). The data set is described as follows: Inhibition of wild type HIV1 reverse transcriptase assessed as 32P-labeled GMP incorporation into nascent DNA strand.
The subject of data set [6] is Human immunodeficiency virus 2. The experiment in a line: Antiviral activity against HIV2 infected in human CEM-SS cells assessed as inhibition of viral replication and virus-induced cytopathic effect by dose-response curve analysis. Conditions: Human immunodeficiency virus 2, CEM-SS. It is filed as functional. A general note: Protection from cytopathic effect is a common read-out in antiviral testing.

Data set [7] can be described thus: Cytotoxicity against human HeLa cells expressing CD4-LTR by XTT assay. It is filed as cell-based. Conditions: read-out: TC50 (the source's name). (Tetrazolium dyes change colour on reduction, which living cells bring about.)
Data set [8] has as its system Human immunodeficiency virus 2. The experiment in a line: Antiviral activity against HIV2 assessed as inhibition of viral replication treated at time points after viral entry into host cells. It is filed as functional, organism-based.
The nature of data set [9]: Therapeutic index, ratio of TC50 human HeLa cells expressing CD4-LTR to EC50 for HIV1 entry inhibition in human HeLa cells expressing CD4-LTR. Particulars: read-out: TI. The format is cell-based.
Data set [10] relates to Human immunodeficiency virus 1. The experiment in a line: Antiviral activity against HIV1 RF infected in human CEM-SS cells assessed as inhibition of virus-induced cytopathic effect by XTT assay. Particulars: Human immunodeficiency virus 1, RF. The format is functional, organism-based.
Data set [11] has as its system Human immunodeficiency virus 1. The experiment in a line: Antiviral activity against HIV1 infected in human HeLa cells expressing CD4-LTR assessed as inhibition of viral entry-related beta galactosidase expression at 0.5 uM followed by drug wash out and viral infection measured after 48 hrs by MAGI assay. The format is functional, organism-based.
Data set [12] concerns Human immunodeficiency virus 1. The data set is described as follows: Antiviral activity against HIV1 infected in human CEM-SS cells assessed as inhibition of viral replication and virus-induced cytopathic effect by dose-response curve analysis. The format is functional. Particulars: Human immunodeficiency virus 1, CEM-SS.
For data set [13], the system named is Human immunodeficiency virus 2. The experiment in a line: Antiviral activity against HIV2 ROD infected in human CEM-SS cells assessed as inhibition of virus-induced cytopathic effect by XTT assay. It is filed as functional, organism-based, ISOLATE ROD. Conditions: Human immunodeficiency virus 2, ISOLATE ROD, CEM-SS; read-out: EC50.
Data set [14] has as its system Simian immunodeficiency virus. The data set is described as follows: Antiviral activity against SIV MAC251 infected in human 174xCEM cells assessed as inhibition of virus-induced cytopathic effect. The format is functional, organism-based.
Data set [15] deals with Human immunodeficiency virus type 1 reverse transcriptase (Human immunodeficiency virus 1, UniProt Q72547, K103N). The experiment in a line: Inhibition of HIV1 reverse transcriptase K103N mutant assessed as 32P-labeled GMP incorporation into nascent DNA strand.
Data set [16] concerns Human immunodeficiency virus 2. The data set is described as follows: Antiviral activity against HIV2 assessed as inhibition of viral single round replication at early time point. The format is functional, organism-based.
The test system of data set [17] is Human immunodeficiency virus 2. The experiment in a line: Inhibition of HIV2 reverse transcriptase assessed as 32P-labeled GMP incorporation into nascent DNA strand at highest concentration.
Data set [18] can be described thus: Cytotoxicity against human CEM-SS cells by XTT assay. The format is cell-based. Particulars: read-out: TC50 (the source's name).
A short description of data set [19]: Therapeutic index, ratio of TC50 for human CEM-SS cells to EC50 for HIV2 ROD infected in human CEM-SS cells. It is filed as cell-based. Particulars: CEM-SS cells, read-out: TI.
Data set [20] can be described thus: Therapeutic index, ratio of TC50 for human CEM-SS cells to EC50 for HIV1 RF infected in human CEM-SS cells. The format is cell-based. Particulars: read-out: TI.
A further data set has as its system HeLa. The data set is described as follows: Inhibition of HIV1 gp120/CD4 interaction assessed as inhibition of gp120 and gp41 coexpressing human HL2/3 cell fusion to CD4 expressing human HeLa cells treated for 2 hrs measured after 48 hrs by chemiluminescence assay. It is filed as cell-based. Conditions: Human immunodeficiency virus 1.
Data set [21] concerns Human immunodeficiency virus 2. The data set is described as follows: Inhibition of HIV2 reverse transcriptase.
For data set [22], the system named is Human immunodeficiency virus 1. The data set is described as follows: Antiviral activity against HIV1 infected in human HeLa cells expressing CD4-LTR assessed as inhibition of viral entry-related beta galactosidase expression at > 0.5 uM followed by drug wash out and viral infection measured after 48 hrs by MAGI assay. It is filed as functional, organism-based.

Regarding `COc1cc(-c2ccc(/N=N/c3ccc4c(S(=O)(=O)O)cc(S(=O)(=O)O)c(N)c4c3O)c(OC)c2)ccc1/N=N/c1ccc2c(S(=O)(=O)O)cc(S(=O)(=O)O)c(N)c2c1O`, the outcome in data set [1] and in [3] was Active. The outcome in data set [2] was inactive.

With `O=C1Nc2ccc(Cl)cc2[C@@](C#CC2CC2)(C(F)(F)F)O1` [EFAVIRENZ], the result in [4] was Active. Also, in data set [3], the Activity stood at 0.02 µM.

For the molecule `CCc1c(C(=O)c2cc(C)cc(C)c2)n(CC2CC=CC2)c(=O)[nH]c1=O`, the values for the half-inhibitory concentration (IC50) in data set [5] and in data set [15] were 0.179 µM and 2.6 µM, respectively. In addition, the concentration for an effect of 99% (EC99) in [6] came to 100 µM; in data set [12] it was 1 µM. Moreover, the values for the CC50 in [7] and in data set [18] were 1120 µM and 1100 µM, respectively. In addition, the outcome in data set [8], in [11], in data set [14], in [17] and in data set [21] was inactive. In addition, the values for the selectivity ratio in data set [9], in data set [19] and in data set [20] were 15700, > 71 and 553000, respectively. Further, the EC50 in data set [10] came out at 0.002 µM; in data set [13], 16 µM; in data set [3] (Human immunodeficiency virus 1, HeLa), 0.07 µM. Further, the outcome in [16] was Active. For the same molecule, in the data set with HeLa, the inhibition result is “inactive”.

Turning to `Cc1cn([C@H]2C[C@H](N=[N+]=[N-])[C@@H](CO)O2)c(=O)[nH]c1=O`, in [22], the outcome was inactive.
